Source: patent US8993574B2, “Pyrrole antifungal agents” (F2G Ltd, priority 2008, dated 2015)
Converted amounts (≈) assume the structure as drawn.

Legend:
Assay type in all cases: cell-based
Aspergillus flavus [1] = assay: MIC, YAG medium; conditions: 24 h at 35° C, MIC banded into grades; for MIC: Aspergillus flavus, 24 h, read-out: MIC grade, A. flavus
In short: (§1)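 OD 485 nm read-out after 24 h at 35° C; MIC = lowest concentration inhibiting growth >70% vs drug-free control, in mg/L. Inoculum 1−2×10^4 cfu/mL in YAG medium; drug range 50-0.05 mg/L, retested at 0.5-0.0005 mg/L when needed.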

[2] = tested on: Aspergillus fumigatus AF210; assay: MIC, YAG medium; conditions: 24 h at 35° C, MIC banded into grades; for MIC: Aspergillus fumigatus, read-out: MIC grade, A. fumigatus 210
In short: as §1

[3] = tested on: Aspergillus fumigatus AF293; assay: MIC, YAG medium; conditions: 24 h at 35° C, MIC banded into grades; for MIC: Aspergillus fumigatus, read-out: MIC grade, A. fumigatus
In short: as §1

Aspergillus niger [4] = assay: MIC, YAG medium; conditions: 24 h at 35° C, MIC banded into grades; for MIC: Aspergillus niger, read-out: MIC grade, A. niger
In short: as §1

Aspergillus terreus AT49 [5] = assay: MIC, YAG medium; conditions: 24 h at 35° C, MIC banded into grades; for MIC: Aspergillus terreus, read-out: MIC grade, A. terreus 49
In short: as §1

Aspergillus terreus AT4 [6] = assay: MIC, YAG medium; conditions: 24 h at 35° C, MIC banded into grades; for MIC: Aspergillus terreus, read-out: MIC grade, A. terreus
In short: as §1

Aspergillus flavus [7] = assay: MIC, RPMI medium; conditions: MIC banded into grades; for MIC: Aspergillus flavus, read-out: MIC grade, A. flavus
In short: (§2)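 Broth microdilution in RPMI with 2% glucose, 0.135 M MOPS pH 7.0; compounds as doubling dilutions, 50-0.05 mg/L, inoculum 1−2×10^4 cfu/mL. Incubated 24-48 h at 35° C; growth by OD 485 nm. MIC is lowest concentration giving >80% growth inhibition versus drug-free control.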

[8] = tested on: Aspergillus fumigatus AF210; assay: MIC, RPMI medium; conditions: for MIC: Aspergillus fumigatus, AF210, MIC banded into grades, read-out: MIC grade, A. fumigatus 210; for MIC grade, A. fumigatus 210: MIC banded into grades
In short: as §2

[9] = tested on: Aspergillus fumigatus AF293; assay: MIC, RPMI medium; conditions: for MIC: Aspergillus fumigatus, AF293, MIC banded into grades, read-out: MIC grade, A. fumigatus; for MIC grade, A. fumigatus: MIC banded into grades
In short: as §2

Aspergillus niger [10] = assay: MIC, RPMI medium; conditions: MIC banded into grades; for MIC: Aspergillus niger, read-out: MIC grade, A. niger
In short: as §2

Aspergillus terreus AT49 [11] = assay: MIC, RPMI medium; conditions: for MIC: Aspergillus terreus, AT49, MIC banded into grades, read-out: MIC grade, A. terreus 49; for MIC grade, A. terreus 49: MIC banded into grades
In short: as §2

Aspergillus terreus AT4 [12] = assay: MIC, RPMI medium; conditions: for MIC: Aspergillus terreus, AT4, MIC banded into grades, read-out: MIC grade, A. terreus; for MIC grade, A. terreus: MIC banded into grades
In short: as §2

Structure (SMILES) | MIC (Aspergillus flavus [1]) | MIC [2] | MIC [3] | MIC (Aspergillus niger [4]) | MIC (Aspergillus terreus AT49 [5]) | MIC (Aspergillus terreus AT4 [6]) | MIC (Aspergillus flavus [7]) | MIC [8] | MIC [9] | MIC (Aspergillus niger [10]) | MIC (Aspergillus terreus AT49 [11]) | MIC (Aspergillus terreus AT4 [12]) | MIC grade, A. flavus (Aspergillus flavus [1]) | MIC grade, A. fumigatus 210 [2] | MIC grade, A. fumigatus [3] | MIC grade, A. niger (Aspergillus niger [4]) | MIC grade, A. terreus 49 (Aspergillus terreus AT49 [5]) | MIC grade, A. terreus (Aspergillus terreus AT4 [6]) | MIC grade, A. flavus (Aspergillus flavus [7]) | MIC grade, A. fumigatus 210 [8] | further results
Cc1cc(C)nc(N2CCN(c3ccc(NC(=O)C(=O)c4[nH]c(C)cc4-c4ccccc4)cc3)CC2)c1 [Example 50, N-{4-[4-(4,6-Dimethyl-pyridin-2-yl)-piperazin-1-yl]-phenyl}-2-(5-methyl-3-phenyl-1H-pyrrol-2-yl)-2-oxo-acetamide] | < 1 µg/mL | < 1 µg/mL | < 1 µg/mL | < 1 µg/mL | < 1 µg/mL | < 1 µg/mL | < 1 µg/mL | < 1 µg/mL | < 1 µg/mL | < 1 µg/mL | < 1 µg/mL | < 1 µg/mL |  |  |  |  |  |  |  |  | 
Cc1cc(C)nc(N2CCN(c3ccc(NC(=O)C(=O)c4c(-c5ccccc5)cc(C)n4C)cc3C)CC2)c1 [Example 51, 2-(1,5-Dimethyl-3-phenyl-1H-pyrrol-2-yl)-N-{4-[4-(4,6-dimethyl-pyridin-2-yl)-piperazin-1-yl]-3-methyl-phenyl}-2-oxo-acetamide] | < 1 µg/mL | < 1 µg/mL | < 1 µg/mL | < 1 µg/mL | < 1 µg/mL | < 1 µg/mL | < 1 µg/mL | < 1 µg/mL | < 1 µg/mL | < 1 µg/mL | < 1 µg/mL | < 1 µg/mL |  |  |  |  |  |  |  |  | 
CCOC(=O)n1c(C)cc(-c2ccccc2)c1C(=O)C(=O)Nc1ccc(N2CCN(c3cc(C)cc(C)n3)CC2)cc1 [Example 55, 2-{4-[4-(4,6-Dimethyl-pyridin-2-yl)-piperazin-1-yl]-phenylaminooxalyl}-5-methyl-3-phenyl-pyrrole-1-carboxylic acid ethyl ester] |  |  |  |  |  |  |  |  |  |  |  |  | 1 (a grade of 1 represents an MIC of greater than 10 mg/L) | 2 (A grade of 2 represents an MIC of from 1 to 10 mg/L) | 2 (A grade of 2 represents an MIC of from 1 to 10 mg/L) | 1 (a grade of 1 represents an MIC of greater than 10 mg/L) | 2 (A grade of 2 represents an MIC of from 1 to 10 mg/L) | 1 (a grade of 1 represents an MIC of greater than 10 mg/L) | 1 (a grade of 1 represents an MIC of greater than 10 mg/L) | 1 (a grade of 1 represents an MIC of greater than 10 mg/L) | MIC grade, A. fumigatus [9]: 1 (a grade of 1 represents an MIC of greater than 10 mg/L); MIC grade, A. niger (Aspergillus niger [10]): 1 (a grade of 1 represents an MIC of greater than 10 mg/L); MIC grade, A. terreus 49 (Aspergillus terreus AT49 [11]): 1 (a grade of 1 represents an MIC of greater than 10 mg/L); MIC grade, A. terreus (Aspergillus terreus AT4 [12]): 1 (a grade of 1 represents an MIC of greater than 10 mg/L)
COC(=O)n1c(C)cc(-c2ccccc2)c1C(=O)C(=O)Nc1ccc(N2CCN(c3cc(C)cc(C)n3)CC2)cc1 [Example 56, 2-{4-[4-(4,6-Dimethyl-pyridin-2-yl)-piperazin-1-yl]-phenylaminooxalyl}-5-methyl-3-phenyl-pyrrole-1-carboxylic acid methyl ester] |  |  |  |  |  |  |  |  |  |  |  |  | 1 (a grade of 1 represents an MIC of greater than 10 mg/L) | 2 (A grade of 2 represents an MIC of from 1 to 10 mg/L) | 2 (A grade of 2 represents an MIC of from 1 to 10 mg/L) | 2 (A grade of 2 represents an MIC of from 1 to 10 mg/L) | 2 (A grade of 2 represents an MIC of from 1 to 10 mg/L) | 2 (A grade of 2 represents an MIC of from 1 to 10 mg/L) | 1 (a grade of 1 represents an MIC of greater than 10 mg/L) | 1 (a grade of 1 represents an MIC of greater than 10 mg/L) | MIC grade, A. fumigatus [9]: 1 (a grade of 1 represents an MIC of greater than 10 mg/L); MIC grade, A. niger (Aspergillus niger [10]): 1 (a grade of 1 represents an MIC of greater than 10 mg/L); MIC grade, A. terreus 49 (Aspergillus terreus AT49 [11]): 1 (a grade of 1 represents an MIC of greater than 10 mg/L); MIC grade, A. terreus (Aspergillus terreus AT4 [12]): 1 (a grade of 1 represents an MIC of greater than 10 mg/L)
COC(=O)Cn1cccc1C(=O)C(=O)Nc1ccc(N2CCN(c3cc(C)cc(C)n3)CC2)cc1 [Example 61, (2-{4-[4-(4,6-Dimethyl-pyridin-2-yl)-piperazin-1-yl]-phenylaminooxalyl}-pyrrol-1-yl)-acetic acid methyl ester] |  |  |  |  |  |  |  |  |  |  |  |  | 1 (a grade of 1 represents an MIC of greater than 10 mg/L) | 2 (A grade of 2 represents an MIC of from 1 to 10 mg/L) | 1 (a grade of 1 represents an MIC of greater than 10 mg/L) | 1 (a grade of 1 represents an MIC of greater than 10 mg/L) | 1 (a grade of 1 represents an MIC of greater than 10 mg/L) | 1 (a grade of 1 represents an MIC of greater than 10 mg/L) | 1 (a grade of 1 represents an MIC of greater than 10 mg/L) | 2 (A grade of 2 represents an MIC of from 1 to 10 mg/L) | MIC grade, A. fumigatus [9]: 1 (a grade of 1 represents an MIC of greater than 10 mg/L); MIC grade, A. niger (Aspergillus niger [10]): 1 (a grade of 1 represents an MIC of greater than 10 mg/L); MIC grade, A. terreus 49 (Aspergillus terreus AT49 [11]): 1 (a grade of 1 represents an MIC of greater than 10 mg/L); MIC grade, A. terreus (Aspergillus terreus AT4 [12]): 1 (a grade of 1 represents an MIC of greater than 10 mg/L)

More lines, main results first:

MIC (Aspergillus flavus [1]) | MIC [2] | MIC [3] | MIC (Aspergillus niger [4]) | MIC (Aspergillus terreus AT49 [5]) | MIC (Aspergillus terreus AT4 [6]) | MIC (Aspergillus flavus [7]) | MIC [8] | MIC [9] | MIC (Aspergillus niger [10]) | MIC (Aspergillus terreus AT49 [11]) | MIC (Aspergillus terreus AT4 [12]) | Structure (SMILES) | MIC grade, A. flavus (Aspergillus flavus [1]) | MIC grade, A. fumigatus 210 [2] | MIC grade, A. fumigatus [3] | MIC grade, A. niger (Aspergillus niger [4]) | MIC grade, A. terreus 49 (Aspergillus terreus AT49 [5]) | MIC grade, A. terreus (Aspergillus terreus AT4 [6]) | MIC grade, A. flavus (Aspergillus flavus [7]) | MIC grade, A. fumigatus 210 [8] | further results
< 1 µg/mL | < 1 µg/mL | < 1 µg/mL | < 1 µg/mL | < 1 µg/mL | < 1 µg/mL | < 1 µg/mL | < 1 µg/mL | < 1 µg/mL | < 1 µg/mL | < 1 µg/mL | < 1 µg/mL | CCc1cc(-c2ccccc2)c(C(=O)C(=O)Nc2ccc(N3CCN(c4cc(C)cc(C)n4)CC3)cc2)n1C [Example 53, N-{4-[4-(4,6-Dimethyl-pyridin-2-yl)-piperazin-1-yl]-phenyl}-2-(5-ethyl-1-methyl-3-phenyl-1H-pyrrol-2-yl)-2-oxo-acetamide] |  |  |  |  |  |  |  |  | 
1 to 10 µg/mL (≈ 1.77 to 17.7 µM) | < 1 µg/mL | < 1 µg/mL | 1 to 10 µg/mL (≈ 1.77 to 17.7 µM) | < 1 µg/mL | 1 to 10 µg/mL (≈ 1.77 to 17.7 µM) | > 10 µg/mL | 1 to 10 µg/mL (≈ 1.77 to 17.7 µM) | < 1 µg/mL | 1 to 10 µg/mL (≈ 1.77 to 17.7 µM) | > 10 µg/mL | > 10 µg/mL | CCc1cc(-c2ccccc2)c(C(=O)C(=O)Nc2ccc(N3CCN(c4cc(C)cc(C)n4)CC3)cc2)n1CCOC [Example 54, N-{4-[4-(4,6-Dimethyl-pyridin-2-yl)-piperazin-1-yl]-phenyl}-2-[5-ethyl-1-(2-methoxy-ethyl)-3-phenyl-1H-pyrrol-2-yl]-2-oxo-acetamide] |  |  |  |  |  |  |  |  | 
1 to 10 µg/mL (≈ 1.75 to 17.5 µM) | 1 to 10 µg/mL (≈ 1.75 to 17.5 µM) | 1 to 10 µg/mL (≈ 1.75 to 17.5 µM) | > 10 µg/mL | 1 to 10 µg/mL (≈ 1.75 to 17.5 µM) | 1 to 10 µg/mL (≈ 1.75 to 17.5 µM) | > 10 µg/mL | > 10 µg/mL | > 10 µg/mL | > 10 µg/mL | > 10 µg/mL | > 10 µg/mL | COCCn1cc(-c2ccccc2Cl)cc1C(=O)C(=O)Nc1ccc(N2CCN(c3cc(C)cc(C)n3)CC2)cc1 [Example 58, 2-[4-(2-Chloro-phenyl)-1-(2-methoxy-ethyl)-1H-pyrrol-2-yl]-N-{4-[4-(4,6-dimethyl-pyridin-2-yl)-piperazin-1-yl]-phenyl}-2-oxo-acetamide] |  |  |  |  |  |  |  |  | 
< 1 µg/mL | < 1 µg/mL | < 1 µg/mL | < 1 µg/mL | < 1 µg/mL | < 1 µg/mL | < 1 µg/mL | < 1 µg/mL | < 1 µg/mL | < 1 µg/mL | < 1 µg/mL | < 1 µg/mL | COCn1c(C)cc(-c2ccccc2)c1C(=O)C(=O)Nc1ccc(N2CCN(c3cc(C)cc(C)n3)CC2)cc1 [Example 62, N-{4-[4-(4,6-Dimethyl-pyridin-2-yl)-piperazin-1-yl]-phenyl}-2-(1-methoxymethyl-5-methyl-3-phenyl-1H-pyrrol-2-yl)-2-oxo-acetamide] |  |  |  |  |  |  |  |  | 
< 1 µg/mL | < 1 µg/mL | < 1 µg/mL | < 1 µg/mL | < 1 µg/mL | < 1 µg/mL | 1 to 10 µg/mL (≈ 1.86 to 18.6 µM) | < 1 µg/mL | < 1 µg/mL | < 1 µg/mL | < 1 µg/mL | 1 to 10 µg/mL (≈ 1.86 to 18.6 µM) | Cc1cc(C)nc(N2CCN(c3ccc(NC(=O)C(=O)c4c(-c5ccccc5)cc(C)n4CCO)cc3)CC2)c1 [Example 64, N-{4-[4-(4,6-Dimethyl-pyridin-2-yl)-piperazin-1-yl]-phenyl}-2-[1-(2-hydroxy-ethyl)-5-methyl-3-phenyl-1H-pyrrol-2-yl]-2-oxo-acetamide] |  |  |  |  |  |  |  |  | 
